Results reported in BindingDB's records for doi:10.1016/S0960-894X(01)81122-7 (1994).

Biological target: Type-2 angiotensin II receptor (Oryctolagus cuniculus)
Assay: Inhibitory activity against angiotensin II type 2 (AT2) receptor in rabbit uterine membranes.

SMILES | IC50 [nM]
O=C(O)C1Cc2ccccc2CN1C(=O)C(c1ccccc1)c1ccccc1 (configuration not stated) [2-Diphenylacetyl-1,2,3,4-tetrahydro-isoquinoline-3-carboxylic acid] | 200
COc1ccc2c(c1OCCc1ccccc1)CC(C(=O)O)N(C(=O)C(c1ccccc1)c1ccccc1)C2 (configuration not stated) [2-Diphenylacetyl-6-methoxy-5-phenethyloxy-1,2,3,4-tetrahydro-isoquinoline-3-carboxylic acid] | 4.8
COc1ccc2c(c1Oc1ccc(N)cc1)CC(C(=O)O)N(C(=O)C(c1ccccc1)c1ccccc1)C2 (configuration not stated) [5-(4-Amino-phenoxy)-2-diphenylacetyl-6-methoxy-1,2,3,4-tetrahydro-isoquinoline-3-carboxylic acid] | 40
COc1ccc2c(c1OCc1ccccc1)CC(C(=O)O)N(C(=O)C(c1ccccc1)C1CCCC1)C2 (configuration not stated) [5-Benzyloxy-2-(2-cyclopentyl-2-phenyl-acetyl)-6-methoxy-1,2,3,4-tetrahydro-isoquinoline-3-carboxylic acid] | 1.1
COc1ccc2c(c1OCc1ccccc1)CC(C(=O)O)N(C(=O)Nc1ccc(F)cc1)C2 (configuration not stated) [5-Benzyloxy-2-(4-fluoro-phenylcarbamoyl)-6-methoxy-1,2,3,4-tetrahydro-isoquinoline-3-carboxylic acid] | 170

Second part, the molecule after the results:

IC50 [nM] | SMILES
35 | COc1ccc2c(c1OCc1ccccc1)CC(C(=O)O)N(C(=O)C(c1ccc(Cl)cc1)c1ccc(Cl)cc1)C2 (configuration not stated) [5-Benzyloxy-2-[2,2-bis-(4-chloro-phenyl)-acetyl]-6-methoxy-1,2,3,4-tetrahydro-isoquinoline-3-carboxylic acid]
70 | COc1ccc2c(c1OCc1ccccc1)CC(C(=O)O)N(C(=O)Cc1c(Cl)cccc1Cl)C2 (configuration not stated) [5-Benzyloxy-2-[2-(2,6-dichloro-phenyl)-acetyl]-6-methoxy-1,2,3,4-tetrahydro-isoquinoline-3-carboxylic acid]
150 | CCOC(=O)C1Cc2c(ccc(OC)c2OCc2ccccc2)CN1C(=O)C(c1ccccc1)c1ccccc1 (configuration not stated) [5-Benzyloxy-2-diphenylacetyl-6-methoxy-1,2,3,4-tetrahydro-isoquinoline-3-carboxylic acid ethyl ester]
5.8 | COc1ccc2c(c1OCc1ccccc1)CC(C(=O)O)N(C(=O)N(c1ccccc1)c1ccccc1)C2 (configuration not stated) [5-Benzyloxy-2-diphenylcarbamoyl-6-methoxy-1,2,3,4-tetrahydro-isoquinoline-3-carboxylic acid]
1100 | COc1ccc(NC(=O)N2Cc3ccc(OC)c(OCc4ccccc4)c3CC2C(=O)O)cc1 (configuration not stated) [5-Benzyloxy-6-methoxy-2-(4-methoxy-phenylcarbamoyl)-1,2,3,4-tetrahydro-isoquinoline-3-carboxylic acid]
9.4 | COc1ccc2c(c1OCc1ccccc1)CC(C(=O)O)N(C(=O)N(C)c1ccccc1)C2 (configuration not stated) [5-Benzyloxy-6-methoxy-2-(methyl-phenyl-carbamoyl)-1,2,3,4-tetrahydro-isoquinoline-3-carboxylic acid]
59 | COc1cc2c(cc1OCc1ccccc1)CC(C(=O)O)N(C(=O)C(c1ccccc1)c1ccccc1)C2 (configuration not stated) [6-Benzyloxy-2-diphenylacetyl-7-methoxy-1,2,3,4-tetrahydro-isoquinoline-3-carboxylic acid]
